The text below walks through data of PubChem BioAssay (NCI).

Some test systems named below: LOX IMVI melanoma; HT29 colon; CCRF-CEM leukemia; KM12 colon; U251 CNS; HS 578T breast; HL-60(TB) leukemia; 786-0 renal; NCI-H522 lung; NCI-H23 lung; MCF7 breast; SF-268 CNS; SK-MEL-28 melanoma; OVCAR-4 ovarian; SK-MEL-2 melanoma.
Holding throughout (experiment): growth of human tumour cells (NCI), 48 h

Molecules are shown by their SMILES.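 Where inhibition never reached the appropriate level, the endpoint shown equals the highest concentration tested. Otherwise, values were interpolated linearly from a five-concentration, 48-hour dose response in 96-well plates. GI50 is the concentration that inhibits growth by half. TGI denotes the concentration required for complete inhibition of growth.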

`COC(=O)c1cccc(C)c1C1CN=NC12Cc1c(ccc(C)c1C)C2=O` (stereo unspecified): the TGI in the test on LOX IMVI melanoma, in the test on HT29 colon, with CCRF-CEM leukemia, in the test with KM12 colon, in the test on U251 CNS and with HS 578T breast was more than 100 µM in each case. Besides, the TGI in the test on HL-60(TB) leukemia is 37.1 µM; with 786-0 renal it was more than 100 µM; with NCI-H522 lung it was more than 100 µM; in the test with NCI-H23 lung, more than 100 µM; in the test with MCF7 breast it was more than 100 µM; with SF-268 CNS, more than 100 µM. Further, the TGI in the test on SK-MEL-28 melanoma and in the test with OVCAR-4 ovarian was more than 100 µM in each case.

For `CC(C(O)c1ccccc1)N(C)/N=N/c1nc2c([nH]1)c(=O)n(C)c(=O)n2C` (stereo unspecified), the TGI in the test with HT29 colon, in the test with CCRF-CEM leukemia, in the test on SK-MEL-2 melanoma, in the test with KM12 colon, with U251 CNS and in the test on HS 578T breast was more than 100 µM throughout. Further, the TGI with HL-60(TB) leukemia, in the test with 786-0 renal, in the test with NCI-H23 lung, in the test on MCF7 breast, in the test with SF-268 CNS and with SK-MEL-28 melanoma was more than 100 µM in each case. This compound gave a TGI in the test on OVCAR-4 ovarian of more than 100 µM.

Regarding `C/C(=C\c1csc(C)n1)[C@@H]1C[C@@H]2O[C@]2(C)CCC[C@H](C)[C@H](O)[C@@H](C)C(=O)C(C)(C)[C@@H](O)CC(=O)O1` (tested in a mixture with another compound), the TGI is more than 1 µM in the test on LOX IMVI melanoma; more than 0.378 µM in the test with HT29 colon; more than 0.464 µM in the test on SK-MEL-2 melanoma; more than 0.44 µM in the test on KM12 colon; more than 1 µM in the test on U251 CNS; more than 1 µM in the test on HS 578T breast. In addition, the TGI in the test on HL-60(TB) leukemia is 0.0278 µM; with 786-0 renal, more than 1 µM; with NCI-H522 lung it was 0.00766 µM; with NCI-H23 lung it was more than 1 µM; with MCF7 breast, more than 1 µM; in the test on SF-268 CNS, more than 1 µM. Also, the TGI with SK-MEL-28 melanoma and in the test with OVCAR-4 ovarian was more than 1 µM each time. In addition, the GI50 in the test with HT29 colon is 0.000721 µM.

Consider `C=CCN1C(=O)N/C(=C\c2ccc(Cl)cc2)C1=O`, for which the TGI with LOX IMVI melanoma, in the test with HT29 colon, with CCRF-CEM leukemia, in the test on KM12 colon, with U251 CNS and with HS 578T breast was more than 100 µM each time. Further, the TGI in the test with HL-60(TB) leukemia, in the test with 786-0 renal, with NCI-H522 lung, with NCI-H23 lung, in the test on MCF7 breast and in the test with SF-268 CNS was more than 100 µM in each case. Further, the TGI in the test on SK-MEL-28 melanoma and in the test on OVCAR-4 ovarian was more than 100 µM in each case.

`OC1OC(c2ccc[nH]2)C(F)(F)C(F)(F)C1(F)F` (stereo unspecified): the TGI in the test with LOX IMVI melanoma, in the test on HT29 colon, with CCRF-CEM leukemia, in the test on SK-MEL-2 melanoma, in the test with KM12 colon and in the test with U251 CNS was more than 100 µM throughout. Further, the TGI with HS 578T breast, with HL-60(TB) leukemia, in the test with 786-0 renal, with NCI-H522 lung, in the test on MCF7 breast and in the test on SF-268 CNS was more than 100 µM in each case. In addition, the TGI in the test on SK-MEL-28 melanoma and in the test with OVCAR-4 ovarian was more than 100 µM in each case.

As for `COc1cc(/C=C2\CCC(C)c3c2nc(N)c(C#N)c3-c2cc(OC)c(OC)c(OC)c2)cc(OC)c1OC` (stereo unspecified), the TGI in the test with LOX IMVI melanoma, in the test with HT29 colon, with CCRF-CEM leukemia, in the test with SK-MEL-2 melanoma, in the test on KM12 colon and in the test with U251 CNS was more than 100 µM throughout. Besides, the TGI with HS 578T breast was 75.1 µM; in the test on HL-60(TB) leukemia, more than 100 µM; with 786-0 renal it was more than 100 µM; in the test with MCF7 breast, more than 100 µM; in the test on SF-268 CNS, more than 100 µM; in the test with SK-MEL-28 melanoma, more than 100 µM. This compound also displayed a TGI with OVCAR-4 ovarian of 78.1 µM.

As for `c1ccc2c(OCC3CO3)ccc(OCC3CO3)c2c1` (stereo unspecified), the TGI with LOX IMVI melanoma was 2.08 µM; with HT29 colon it was 17.5 µM; in the test on CCRF-CEM leukemia, 11.2 µM; in the test on KM12 colon, 16.1 µM; in the test with U251 CNS it was 6.32 µM; in the test with HS 578T breast, 9.73 µM. The TGI amounted to 2.4 µM in the test with HL-60(TB) leukemia; 5.57 µM in the test with 786-0 renal; 22.5 µM in the test with NCI-H522 lung; 6.67 µM with NCI-H23 lung; 4.66 µM in the test on MCF7 breast; 12.1 µM in the test on SF-268 CNS. For the same compound, the results for the TGI with SK-MEL-28 melanoma and in the test with OVCAR-4 ovarian were 21.5 µM and 21 µM, respectively.

`CN(C)Cc1cc(C(=O)/C=C/c2c(Cl)cccc2Cl)cc(CN(C)C)c1O`: the TGI worked out at 4.45 µM with LOX IMVI melanoma; 11.6 µM in the test on HT29 colon; 59 µM in the test on CCRF-CEM leukemia; 7.2 µM in the test on KM12 colon; 23.4 µM with U251 CNS; 38.7 µM in the test with HS 578T breast. The TGI in the test with HL-60(TB) leukemia stood at 11.7 µM; in the test on 786-0 renal it was 16.2 µM; in the test on NCI-H522 lung, 10.7 µM; in the test on NCI-H23 lung, 34.2 µM; in the test with MCF7 breast it was 14.7 µM; in the test with SF-268 CNS, 32.4 µM. The values for the TGI in the test with SK-MEL-28 melanoma and in the test with OVCAR-4 ovarian were 20.9 µM and 24.8 µM, respectively.

For `O=S(=O)([N-]c1nc2ccccc2nc1-[n+]1ccccc1)c1ccccc1`, the TGI in the test on LOX IMVI melanoma is more than 100 µM; with HT29 colon, more than 100 µM; with CCRF-CEM leukemia, 30.7 µM; in the test on SK-MEL-2 melanoma it was more than 100 µM; in the test with KM12 colon it was more than 100 µM; in the test with HS 578T breast it was more than 100 µM. Besides, the TGI with HL-60(TB) leukemia is 72.6 µM; with 786-0 renal, more than 100 µM; with NCI-H522 lung it was more than 100 µM; with NCI-H23 lung it was more than 100 µM; in the test with MCF7 breast, more than 100 µM; with SF-268 CNS, more than 100 µM. The compound further returned a TGI in the test on OVCAR-4 ovarian of more than 100 µM.

Regarding `Cc1nc2c(n1CCCl)C(=O)c1ccccc1C2=O`, the TGI in the test on HT29 colon is 44.7 µM; in the test on CCRF-CEM leukemia it was more than 100 µM; in the test with KM12 colon, more than 100 µM; in the test on U251 CNS, 62.4 µM; in the test on HS 578T breast, more than 100 µM; in the test with HL-60(TB) leukemia it was 83.8 µM. Also, the TGI was more than 100 µM with 786-0 renal; 49.6 µM with NCI-H522 lung; 92.2 µM in the test with NCI-H23 lung; 41.6 µM in the test on MCF7 breast; more than 100 µM in the test with SF-268 CNS; more than 100 µM with SK-MEL-28 melanoma. Besides, in the test on OVCAR-4 ovarian, the TGI worked out at 29.7 µM.

Take `C#CCOC(=O)C(N)CS` (stereo unspecified): the TGI with LOX IMVI melanoma, with HT29 colon, in the test with CCRF-CEM leukemia, in the test on SK-MEL-2 melanoma, in the test with KM12 colon and in the test with U251 CNS was more than 100 µM in each case. Also, the TGI in the test on HS 578T breast, in the test with HL-60(TB) leukemia, with 786-0 renal, in the test with NCI-H522 lung, in the test with NCI-H23 lung and in the test with MCF7 breast was more than 100 µM in each case. Also, the TGI with SF-268 CNS and in the test on SK-MEL-28 melanoma was more than 100 µM in each case.

Turning to `CC1N(O)C(c2ccccc2)C(c2ccccc2)=[N+]1[O-]` (stereo unspecified), the TGI with LOX IMVI melanoma, with HT29 colon, in the test on CCRF-CEM leukemia, with SK-MEL-2 melanoma, in the test with KM12 colon and in the test on U251 CNS was more than 100 µM each time. The TGI with HS 578T breast, in the test on HL-60(TB) leukemia, with 786-0 renal, with NCI-H23 lung, in the test with MCF7 breast and in the test on SK-MEL-28 melanoma was more than 100 µM in each case. Further, the TGI with OVCAR-4 ovarian is more than 100 µM.

Regarding `CCOC(=O)C1C(C(C)C)C2(C#N)C(=N)OC1(C)C2(C#N)C#N` (stereo unspecified), the TGI in the test on LOX IMVI melanoma, in the test with HT29 colon, in the test with CCRF-CEM leukemia, with SK-MEL-2 melanoma, in the test with KM12 colon and in the test on U251 CNS was more than 100 µM each time. Besides, the TGI in the test with HS 578T breast, in the test with HL-60(TB) leukemia, in the test on 786-0 renal, with NCI-H522 lung, in the test on NCI-H23 lung and with MCF7 breast was more than 100 µM in each case. The TGI with SF-268 CNS and in the test on SK-MEL-28 melanoma was more than 100 µM throughout.

Consider `CNC(=O)C(C)NC(=O)C(Cc1ccccc1)NC(=O)OC(C)(C)C` (stereo unspecified), for which the TGI with LOX IMVI melanoma, in the test with HT29 colon, in the test with CCRF-CEM leukemia, with SK-MEL-2 melanoma, in the test with KM12 colon and in the test with U251 CNS was more than 100 µM throughout. Moreover, the TGI in the test on HS 578T breast, in the test on HL-60(TB) leukemia, with 786-0 renal, in the test on NCI-H522 lung, in the test with NCI-H23 lung and in the test with MCF7 breast was more than 100 µM each time. Also, the TGI in the test on SF-268 CNS and in the test on SK-MEL-28 melanoma was more than 100 µM in each case.

For `CCCOc1ccc(/C=C/C2=[N+](CCO)CCO2)cc1`, the TGI with HT29 colon, in the test with CCRF-CEM leukemia, with SK-MEL-2 melanoma, in the test with KM12 colon, in the test with U251 CNS and with HS 578T breast was more than 100 µM throughout. The TGI with HL-60(TB) leukemia, in the test on 786-0 renal, in the test on NCI-H522 lung, in the test with NCI-H23 lung, in the test on MCF7 breast and in the test with SF-268 CNS was more than 100 µM each time. Besides, the TGI with SK-MEL-28 melanoma and in the test on OVCAR-4 ovarian was more than 100 µM in each case.
